Data reported in US9227949B2, “Heteroarylcarboxylic acid ester derivative” (AJINOMOTO CO., INC., priority 2012, dated 2016).

Assays:
Zucker Fatty rats = test: Evaluation of hypoglycemic action (blood glucose levels after oral gavage); format: in vivo; conditions: gavage 3 mg/kg, HCl salt form, 2 or 4 hours after dosing, free access to feed
Experimental: Zucker Fatty rats (male, 11-19 week-old, Charles River Japan, Inc.) known to spontaneously develop hyperglycemia were randomly assigned to the groups (6 per group). The animals were individually housed in a polycarbonate cage and allowed to drink water freely from a watering bottle. The animals in the compound groups were gavaged with compound No. 10, 87, 19, or 69 at the dose of 3 mg/kg. These compounds were used as HCl salt form thereof, converted by the method according to Example 3, step 6 from TFA salt form thereof upon the necessity. The animals in the control group were only treated with the vehicle (0.5% methylcellulose). Animals were allowed free access to the feed (CRF-1, Oriental Yeast Co., Ltd.) during the experiment. An aspirate of the blood (6 μL) was collected from the tail vein on the time point of immediately before dosing (time 0) as well as 2, 4, and 8 hours after dosing. The blood glucose levels were determined with ACCU-CHEK Aviva (Roche Diagnostics K.K.).

[1] = target: recombinant human enteropeptidase (Homo sapiens (Human), UniProt P98073); test: Measurement of enteropeptidase inhibitory activity; format: biochemical; conditions: substrate Gly-Asp-Asp-Asp-Asp-Lys-β-Naphtylamide, Tris-HCl pH 8.0, Dixon plot
Experimental: Using a 96 well plate (#3915, Costar), a test compound (25 μL), 400 mM Tris-HCl buffer (pH 8.0, 25 μL) and 0.5 mg/mL, fluorescence enzyme substrate (Gly-Asp-Asp-Asp-Asp-Lys-β-Naphtylamide, 25 μL) were mixed, and recombinant human enteropeptidase (R&D Systems, Inc., 25 μL) was added. Using a fluorescence plate reader fmax (Molecular Devices, Inc.), the reaction rate was measured from the time-course changes at excitation wavelength 320 nm and fluorescence wavelength 405 nm. The Ki value was calculated from the concentration of the test compound, reciprocal of reaction rate, and Km value of the enzyme substrate, and by using Dixon plot.

human trypsin [2] = target: human trypsin (Homo sapiens, UniProt P07477); test: Measurement of trypsin inhibitory activity; format: biochemical; conditions: substrate Boc-Phe-Ser-Arg-AMC, Tris-HCl pH 8.0, Dixon plot
Experimental: (§1) Using a 96 well plate (#3915, Costar), a test compound (25 μL) was mixed with 20 μM fluorescence enzyme substrate (Boc-Phe-Ser-Arg-AMC, 50 μL) mixed with 200 mM Tris-HCl buffer (pH 8.0), and human trypsin (Sigma, 25 μL) was added. Using a fluorescence plate reader fmax (Molecular Devices, Inc.), the reaction rate was measured from the time-course changes at excitation wavelength 355 nm and fluorescence wavelength 460 nm. The Ki value was calculated from the concentration of the test compound, reciprocal of reaction rate, and Km value of the enzyme substrate, and by using Dixon plot.

human trypsin [3] = test: Measurement of trypsin inhibitory activity; format: biochemical; conditions: substrate Boc-Phe-Ser-Arg-AMC, Tris-HCl pH 8.0, Dixon plot
Experimental: as §1

Chain of recombinant human enteropeptidase (P98073 whole entry): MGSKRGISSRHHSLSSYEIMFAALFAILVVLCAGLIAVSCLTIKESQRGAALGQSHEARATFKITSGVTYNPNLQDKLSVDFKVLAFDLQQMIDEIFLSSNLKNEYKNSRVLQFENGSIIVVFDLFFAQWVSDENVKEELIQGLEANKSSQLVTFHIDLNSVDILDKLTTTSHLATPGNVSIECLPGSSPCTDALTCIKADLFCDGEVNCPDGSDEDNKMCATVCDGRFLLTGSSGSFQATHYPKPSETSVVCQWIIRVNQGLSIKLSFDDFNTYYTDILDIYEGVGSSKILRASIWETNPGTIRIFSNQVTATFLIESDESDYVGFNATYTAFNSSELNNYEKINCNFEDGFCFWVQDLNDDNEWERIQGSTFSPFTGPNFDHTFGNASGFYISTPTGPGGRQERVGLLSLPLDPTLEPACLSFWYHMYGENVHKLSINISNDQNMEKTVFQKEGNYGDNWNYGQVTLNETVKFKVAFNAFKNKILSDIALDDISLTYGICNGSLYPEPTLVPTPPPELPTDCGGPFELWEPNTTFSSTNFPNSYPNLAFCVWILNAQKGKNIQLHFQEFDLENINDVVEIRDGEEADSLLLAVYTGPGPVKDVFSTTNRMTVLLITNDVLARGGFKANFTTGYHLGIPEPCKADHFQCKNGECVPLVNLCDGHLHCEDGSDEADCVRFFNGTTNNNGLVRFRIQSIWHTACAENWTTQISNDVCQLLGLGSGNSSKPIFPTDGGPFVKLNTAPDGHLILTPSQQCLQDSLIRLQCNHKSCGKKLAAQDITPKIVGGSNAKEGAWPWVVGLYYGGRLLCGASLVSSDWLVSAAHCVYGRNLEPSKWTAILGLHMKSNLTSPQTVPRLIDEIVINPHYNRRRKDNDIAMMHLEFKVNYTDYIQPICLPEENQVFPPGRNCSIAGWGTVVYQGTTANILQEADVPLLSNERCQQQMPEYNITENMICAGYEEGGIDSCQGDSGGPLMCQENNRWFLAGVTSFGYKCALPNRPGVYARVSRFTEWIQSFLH

| SMILES | blood glucose levels compared with vehicle group (Zucker Fatty rats) | Ki [1] [nM] | Ki (human trypsin [2]) [nM] | Ki (human trypsin [3]) [nM] |
| --- | --- | --- | --- | --- |
| CCCN(CC(=O)O)C(=O)C(C)(C)Cc1ccc(C(=O)Oc2ccc(C(=N)N)cc2F)s1.Cl [Compound 10, N-{3-[5-(4-amidino-2-fluorophenoxycarbonyl)thiophen-2-yl]-2,2-dimethylpropionyl}-N-propylglycine hydrochloride] | significantly decreased | – | – | – |
| CCC(CC)(Cc1ccc(C(=O)Oc2ccc(C(=N)N)cc2F)s1)C(=O)N[C@@H](CC(=O)O)C(=O)O.Cl [Compound 19] | significantly decreased | – | – | – |
| CC(C)(Cc1ccc(C(=O)Oc2ccc(C(=N)N)cc2F)s1)C(=O)N[C@@H](C(=O)O)c1ccc(O)cc1.O=C(O)C(F)(F)F [Compound 69] | significantly decreased | – | – | – |
| CC(C)(Cc1ccc(C(=O)Oc2ccc(C(=N)N)cc2F)s1)C(=O)Nc1cc(O)cc(C(=O)O)c1 [Compound 74] | – | 0.58 | 0.18 | – |
| CCC(CC)(Cc1ccc(C(=O)Oc2ccc(C(=N)N)cc2F)s1)C(=O)Nc1ccc(O)c(C(=O)O)c1 [Compound 82] | – | 3.52 | 5.32 | – |
| CCC(CC)(Cc1ccc(C(=O)Oc2ccc(C(=N)N)cc2F)s1)C(=O)NCC(=O)O [Compound 83] | – | 0.72 | – | 1.42 |
| CCC(CC)(Cc1ccc(C(=O)Oc2ccc(C(=N)N)cc2F)s1)C(=O)N[C@@H](CCC(=O)O)c1nnn[nH]1 [Compound 84] | – | 0.43 | – | 3.27 |
| CC(C)(Cc1ccc(C(=O)Oc2ccc(C(=N)N)cc2F)s1)C(=O)N[C@H]1CCC[C@@H](C(=O)O)C1 [Compound 85] | – | 0.81 | 0.69 | – |
| CCC(CC)(Cc1ccc(C(=O)Oc2ccc(C(=N)N)cc2F)s1)C(=O)N[C@@H](Cc1nn[nH]n1)C(=O)O [Compound 86] | – | 0.24 | 3.4 | – |
| CC(C)(Cc1ccc(C(=O)Oc2ccc(C(=N)N)cc2F)s1)C(=O)O.O=C(O)C(F)(F)F [Compound 87] | significantly decreased | 0.39 | 1.3 | – |
| CCC(CC)(Cc1ccc(C(=O)Oc2ccc(C(=N)N)cc2F)s1)C(=O)N1CC(C(=O)O)C1 [Compound 88] | – | 1 | 2.87 | – |
| CCC(CC)(Cc1ccc(C(=O)Oc2ccc(C(=N)N)cc2F)s1)C(=O)Nc1cccc(S(=O)(=O)O)c1 [Compound 89] | – | 0.84 | – | 1.17 |
| CCC(CC)(Cc1ccc(C(=O)Oc2ccc(C(=N)N)cc2F)s1)C(=O)Nc1ccc(C(=O)O)c(C(=O)O)c1 [Compound 90] | – | 0.55 | 1.7 | – |
| CC(C)(Cc1ccc(C(=O)Oc2ccc(C(=N)N)cc2F)s1)C(=O)N1CC[C@H](C(=O)O)C1 [Compound 91] | – | 0.9 | 1.33 | – |
| CC(C)(Cc1ccc(C(=O)Oc2ccc(C(=N)N)cc2F)s1)C(=O)N[C@H](C(=O)O)c1ccc(O)cc1 [Compound 92] | – | 0.67 | – | 0.96 |
| CC(C)(Cc1ccc(C(=O)Oc2ccc(C(=N)N)cc2F)s1)C(=O)N1C[C@H](O)C[C@H]1C(=O)O [Compound 93] | – | 0.3 | – | 0.9 |
| CC(C)(Cc1ccc(C(=O)Oc2ccc(C(=N)N)cc2F)s1)C(=O)N[C@H]1CC=CC[C@H]1C(=O)O [Compound 94] | – | 1.3 | – | 1.98 |
